Entries after “also recorded” stand apart in the source; their conditions may differ. Where a SMILES comes first, the peptide text is derived from it. The star is where a group is joined. Cbz = O=C(OCc1ccccc1)*
Key:
HCT116 cells [1] = assay: Confocal immunofluorescence scoring of asymmetrically dividing and G0-like (H3K9me2low/MCM2low/HES1high) cells; type: cell-based, human; conditions: for frequency of asymmetrically dividing and G0-like cells / frequency of G0-like cells: HCT116; for frequency of asymmetrically dividing and G0-like cells: small molecule for 72 h at the single dose (low, non-antiproliferative or target-suppressing), vs DMSO control; for production of G0-like cells: wild-type HCT116, target-suppressing doses, 72 hours or 144 hours; for frequency of G0-like cells: proteasome inhibitor 1 μM for 24 h, doses that do not affect overall cell proliferation
Procedure: (§1) Drug treatment in vitro. Cells were seeded onto collagen IV-coated coverslips, allowed to attach overnight, and treated with vehicle (DMSO) or AKT1/2 inhibitor (HCT116: 20μM; MCF7: 2 μM) (Sigma), MK2206 (HCT116: 10 μM; MCF7: 3 μM) (Selleck Chemicals), TORIN1 (HCT116: 0.5 μM; MCF7: 0.25 μM) (Tocris Bioscience), AZD8055 (HCT116: 0.7 μM; MCF7: 0.1 μM) (Selleck Chemicals), INK128 (HCT116: 0.05 μM; MCF7: 0.01 μM) (Active Biochem), Palomid 529 (HCT116: 10 μM; MCF7: 20 μM) (Selleck Chemicals), (Rapamycin (HCT116: 20 μM; MCF7: 20 μM)(Sigma), RAD-001 (HCT116: 10 μM; MCF7: 5 μM) (Selleck Chemicals), (AZD5363 (HCT116: 50 μM; MCF7: 5 μM) (Active Biochem), GDC0068 (HCT116: 50 μM; MCF7: 5 μM) (Active Biochem) for 72 h and Bortezemib (HCT116: 1 μM; MCF7: 4 μM) (Selleck Chemicals) MG-132 (vehicle: ethanol) (HCT116: 1 μM; MCF7: 10 μM), for 24 h.
(§2) Immunofluorescence staining. For bulk populations and for colonies, cells were grown directly on collagen IV-coated coverslips (Sigma). Cells were fixed in 3.7% formalin, permeabilized using 0.1% Triton X-100, and treated with 0.1% SDS. They were blocked in 1% BSA and then incubated with primary antibody (α-H3K9me2 (Abcam); α-MCM2 and α-Tubulin (Cell Signaling), α-Hes1 and α-TTC3 (Abnova)) diluted in blocking solution, washed, and incubated with the respective secondary antibody. Cells were mounted using hard-set mounting media containing DAPI (Vector Laboratories). All secondary antibodies were Alexa Fluor conjugates (488, 555, 568, 633, and 647) (Invitrogen). Immunofluorescence imaging (on a Nikon Eclipse Ti A1R-A1 confocal microscope) and live-cell imaging (on the Nikon Biostation CT platform) were performed as previously described (1).
(§3) Drug treatment in vitro. Cells were seeded onto collagen IV-coated coverslips, allowed to attach overnight, and treated with vehicle (DMSO) or AKT1/2 inhibitor (HCT116: 20 μM; MCF7: 2 μM) (Sigma), MK2206 (HCT116: 10 μM; MCF7: 3 μM) (Selleck Chemicals), TORIN1 (HCT116: 0.5 μM; MCF7: 0.25 μM) (Tocris Bioscience), AZD8055 (HCT116: 0.7 μM; MCF7: 0.1 μM) (Selleck Chemicals), INK128 (HCT116: 0.05 μM; MCF7: 0.01 μM) (Active Biochem), Palomid 529 (HCT116: 10 μM; MCF7: 20 μM) (Selleck Chemicals), (Rapamycin (HCT116: 20 μM; MCF7: 20 μM)(Sigma), RAD-001 (HCT116: 10 μM; MCF7: 5 μM) (Selleck Chemicals), BKM-120 (HCT116: 1.5 μM; MCF7: 0.5 μM) (Active Biochem), FAK inhibitors (PF-562271: 1 μM Pfizer) and NVP-TAE226 : 1 μM (Novartis), for both cell lines) for 72 h and Bortezemib (HCT116: 1 μM; MCF7: 4 μM) (Selleck Chemicals) MG-132 (vehicle: ethanol) (HCT116: 1 μM; MCF7: 10 μM), for 24 h.
as §2, with “(a-H3K9me2” for “(α-H3K9me2”, “A1R-A1™” for “A1R-A1”, “described7. Slides coated with Type-I collagen (control) and AlignCol™ woven with large collagen fibers (100-200 nm) (Advanced Biomatrix) were incubated for 1 hour in 70% ethanol and then washed with PBS. Cells were then plated on the slides and processed for immunofluorescence.” for “described (1).”
(§4) Antibody activation and inhibition. […]

MCF7 cells [2] = assay: as above; type: cell-based, human; conditions: for frequency of asymmetrically dividing and G0-like cells / frequency of G0-like cells: MCF7; for frequency of asymmetrically dividing and G0-like cells: small molecule for 72 h at the single dose (low, non-antiproliferative or target-suppressing), vs DMSO control; for production of G0-like cells: wild-type MCF7, target-suppressing doses, 72 hours or 144 hours; for frequency of G0-like cells: proteasome inhibitor for 24 h (Bortezomib 4 μM, MG-132 10 μM), doses that do not affect overall cell proliferation
Procedure: as §1, §2, §3
as §2, with “(a-H3K9me2” for “(α-H3K9me2”, “A1R-A1™” for “A1R-A1”, “described7. Slides coated with Type-I collagen (control) and AlignCol™ woven with large collagen fibers (100-200 nm) (Advanced Biomatrix) were incubated for 1 hour in 70% ethanol and then washed with PBS. Cells were then plated on the slides and processed for immunofluorescence.” for “described (1).”
as §4

cancer cells = conditions: cited from earlier work
HCT116 cells [3] = assay: Tumor formation in nude mice by cells pre-treated ex vivo with AKT1/2 inhibitor
Procedure: (§5) Xenografting & tumor propagation in vivo. For in vivo RICTOR knockdown experiments, 5×10^5 cells (MCF7, HCT116, A375, PC9, MDA-MB-231 cell lines) carrying either doxycycline-inducible non-silencing or RICTOR-targeting shRNAs (120392, 225915) were injected subcutaneously into the flanks of 5-6 week old, female nude mice. The mice were given doxycycline in water at 20 mg/ml for hairpin induction. For induction of asymmetrically dividing cells and slow proliferators, cells were treated with AKT1/2 inhibitor and DMSO (vehicle) for 72 h and were harvested at 60-70% confluence, and then counted and washed twice in PBS and resuspended in 1:1 Media: Matrigel (BD Biosciences). 5×10^6, 5×10^5, 5×10^4, 5×10^3 and 5×10^2 cells respectively were injected subcutaneously into the flanks of 5-6 week old, female nude mice (Nude/Nude) (Charles River Labs). For all experiments, growing tumors were measured weekly by caliper, and mice were killed after the tumor size reached 1 cm^3. Mouse experiments were carried out under a Massachusetts General Hospital Institutional Review Board-approved protocol.
(§6) Tumor studies in vivo. For TS2/16 antibody treatment studies in vivo, we injected 5×10^5 cells (A375, MDA-MB-231, PC9, HCT116, MCF7) subcutaneously into the flanks of 5-6 week old, female nude mice (Nude/Nude) (Charles River Labs). Once the tumors were palpable, mice were injected i.p. with TS2/16 ([…] at 4 mg/ml/wk×5 weeks) and the tumors were measured. For RICTOR knockdown experiments in vivo, we injected 5×10^5 cells (A375, MDA-MB-231, PC9, HCT116, MCF7) carrying either doxycycline-inducible non-silencing or RICTOR-targeting shRNAs (120392, 225915) subcutaneously into the flanks of 5-6 week old, female nude mice (Nude/Nude). The mice were given doxycycline in water at 20 mg/ml for hairpin induction starting immediately after implantation. For induction of slow proliferators, cells were treated with AKT1/2 inhibitor and DMSO (vehicle) for 72 h and were harvested at 60-70% confluence, and then counted and washed twice in PBS and resuspended in 1:1 Media: Matrigel (BD Biosciences). We then injected 5×106, 5×105, and 5×10^4 cells respectively subcutaneously into the flanks of 5-6 week old, female nude mice. For all experiments, growing tumors were measured weekly by caliper, and mice were killed when tumors reached approximately 1 cm3 in size. Animal experiments were carried out under a Massachusetts General Hospital Institutional Review Board-approved protocol.

MCF7 cells [4] = assay: as above
Procedure: as §5, §6

Molecule | frequency of asymmetrically dividing and G0-like cells (HCT116 cells [1]) | frequency of asymmetrically dividing and G0-like cells (MCF7 cells [2]) | further results
Nc1cc(C(F)(F)F)c(-c2cc(N3CCOCC3)nc(N3CCOCC3)n2)cn1 [BKM-120] | not suppressed | not suppressed | production of G0-like cells (HCT116 cells [1]): not suppressed; production of G0-like cells (MCF7 cells [2]): not suppressed
CC(C)n1nc(-c2ccc3oc(N)nc3c2)c2c(N)ncnc21 [INK-128] | significantly reduced | significantly reduced | 
CNC(=O)c1ccccc1Nc1nc(Nc2ccc(N3CCOCC3)cc2OC)ncc1Cl [NVP-TAE226] | increased | increased | 
AZD5363 | did not reduce | did not reduce | 
NC1(c2ccc(-c3nc4ccn5c(=O)[nH]nc5c4cc3-c3ccccc3)cc2)CCC1 [MK2206] | dramatically increases | dramatically increases | 
CC(C)C[C@H](NC(=O)[C@H](Cc1ccccc1)NC(=O)c1cnccn1)B(O)O [Bortezomib] |  |  | frequency of G0-like cells (HCT116 cells [1]): significantly reduced; frequency of G0-like cells (HCT116 cells [1]; listed as bortezomib): reduced; frequency of G0-like cells (MCF7 cells [2]): significantly reduced; frequency of G0-like cells (MCF7 cells [2]; listed as bortezomib): reduced
CN(c1ncccc1CNc1nc(Nc2ccc3c(c2)CC(=O)N3)ncc1C(F)(F)F)S(C)(=O)=O [PF-562271] | increased | increased | 
CC(C)NC[C@@H](C(=O)N1CCN(c2ncnc3c2[C@H](C)C[C@H]3O)CC1)c1ccc(Cl)cc1 [GDC0068] | did not reduce | did not reduce | 
CO[C@H]1C[C@@H]2CC[C@@H](C)[C@@](O)(O2)C(=O)C(=O)N2CCCC[C@H]2C(=O)O[C@H]([C@H](C)C[C@@H]2CC[C@@H](OCCO)[C@H](OC)C2)CC(=O)[C@H](C)/C=C(\C)[C@@H](O)[C@@H](OC)C(=O)[C@H](C)C[C@H](C)/C=C/C=C/C=C/1C [RAD-001] | did not suppress; also recorded: not suppressed | did not suppress; also recorded: not suppressed | production of G0-like cells (HCT116 cells [1]): not suppressed; production of G0-like cells (MCF7 cells [2]): not suppressed
CC(C)C[C@@H](C=O)NC(=O)[C@H](CC(C)C)NC(=O)[C@H](CC(C)C)NC(=O)OCc1ccccc1 [MG-132] (Cbz-Leu-Leu-Leu-aldehyde) |  |  | frequency of G0-like cells (HCT116 cells [1]): significantly reduced; frequency of G0-like cells (MCF7 cells [2]): significantly reduced
CCC(=O)N1CCN(c2ccc(-n3c(=O)ccc4cnc5ccc(-c6cnc7ccccc7c6)cc5c43)cc2C(F)(F)F)CC1 [TORIN1] | significantly reduced | significantly reduced | 
O=c1[nH]c2ccccc2n1C1CCN(Cc2ccc(-c3nc4cc5[nH]cnc5cc4nc3-c3ccccc3)cc2)CC1 [AKT1/2] | dramatically increases | dramatically increases | effect on cancer cells at higher doses (cancer cells): kills cancer cells; tumor size, larger on average than tumors from untreated cell populations (HCT116 cells [3]; HCT116 pre-treated 72 h, implanted in nude mice): 50%; engraftment (HCT116 cells [3]; HCT116 pre-treated 72 h with low dose, implanted s.c. in nude mice over a range of cell numbers, vs DMSO-treated cells): significantly increased; also recorded: significantly promoted; tumor size over time (HCT116 cells [3]; HCT116 pre-treated with low dose ex vivo, s.c. in nude mice, 100-fold cell number range): notably larger; tumor size, larger on average than tumors from untreated cell populations (MCF7 cells [4]; MCF7 pre-treated 72 h, implanted in nude mice): 50%; engraftment (MCF7 cells [4]; MCF7 pre-treated 72 h with low dose, implanted s.c. in nude mice over a range of cell numbers, vs DMSO-treated cells): significantly increased; also recorded: significantly promoted; tumor size over time (MCF7 cells [4]; MCF7 pre-treated with low dose ex vivo, s.c. in nude mice, 100-fold cell number range): notably larger
COc1ccc(-c2ccc3c(N4CCOC[C@@H]4C)nc(N4CCOC[C@@H]4C)nc3n2)cc1CO [AZD8055] | significantly reduced | significantly reduced | 
COc1ccc(COc2cc3oc(=O)c4cc(C(C)O)ccc4c3cc2OC)cc1 (centres unmarked) [Palomid-529] | significantly reduced | significantly reduced | 
